Results on 13 compounds are retold here after patent publication US8981149B2, “Compounds modulating the hedgehog protein signaling pathway, marked forms thereof, and applications” (Centre National De La Recherche Scientifique, priority 2011, dated 2015).

One series concerns C3H10T1/2 cells. As to the kind of experiment: Differentiation of C3H10T1/2 cells induced by SAG, alkaline phosphatase (AP) activity. The series is classed as cell-based, mouse. The procedure:
The test compounds of formula (I) were dissolved in dimethylsulfoxide up to a concentration of 10 mM, then stored at a temperature of −20° C. until used.
The line of C3H10T1/2 pluripotent fibroblast cells (ATCC) was cultured in the conditions recommended by the ATCC. These cells were activated using 0.1 μM of SAG according to the methods described by Chen et al., Proc. Natl. Acad. Sci. USA, 2002, 99, 14071 and Frank-Kamenetsky et al., J. Biol., 2002, 1, 10.
Activation by SAG causes differentiation of the cell line and allows it to express alkaline phosphatase (AP). It was thus possible to measure the activity of the Hedgehog protein signalling pathway via measurement of the alkaline phosphatase (AP) activity.
The C3H10T1/2 cells were seeded on 96-well plates at a density of 5.10^3 cells per well, 24 hours before adding the test compounds at a concentration varying from 1 nM to 30 μM and in the presence of 0.1 μM of SAG, using DMEM (Dulbecco's Modified Eagle's Medium) with 10% fetal calf serum as culture medium. The tests were carried out in quadruplicate. The plates were then incubated for 5 to 6 days at a temperature of 37° C. under 5% CO2 atmosphere. The cells were then washed in cold phosphate buffer (“Phosphate Buffer Serum”: PBS), then lysed by sonication at 4° C. in 50 μL of a solution containing 0.9% of NaCl and 0.2% of Triton X-100.
Measurement of the alkaline phosphatase (AP) activity in the lysates thus obtained was then performed according to the method described by Pepinsky et al. (J. Biol. Chem., 1998, 273, 14037). After adding 100 μL of reaction buffer (200 mM Tris-HCl; pH 10.5; 0.4 M of 2-amino-2-methylpropanol and 8 mM of MgCl2) and 50 μL of substrate (4 mM of p-nitrophenyl disodium phosphate), the lysates were incubated at 37° C. for 30-60 min, then the optical density was read at a wavelength of 415 nm.

Another series has as its system PCGs of rat cerebellum. Nature of the series: Proliferation of granule cell precursors (PCGs) of rat cerebellum induced by SAG, 3H-thymidine incorporation. The series is classed as cell-based. The following applies: proliferation induced by SAG (0.01 μM), 3H-thymidine incorporation, read-out: IC50 ± SEM, PCGs of rat cerebellum (3). As for the experimental part:
The granule cell precursors (GCP) are isolated from cerebellums of rats (IFFA-CREDO, France), 8 days after birth (P8). The cerebellums are taken, cut into small pieces, placed in Krebs-Ringer buffer (120 mM NaCl, 5 mM KCl, 1 mM KH2PO4, 25 mM NaHCO3, 15 mM glucose, 0.04 mM phenol red) and incubated for 15 minutes at room temperature in a dissociation buffer composed of Krebs-Ringer with addition of 250 mg/ml of trypsin (Sigma, France). Enzymatic dissociation is stopped by adding an equal volume of Krebs-Ringer buffer containing 250 mg/ml of a trypsin inhibitor and 80 mg/ml of DNase (Sigma, France). The tissue is centrifuged at 100 g for 10 seconds and the pellet obtained is resuspended and triturated using Pasteur pipettes of decreasing diameter to obtain a suspension of isolated cells. This suspension is centrifuged at 200 g for 5 minutes and the pellet obtained is resuspended in Neurobasal medium supplemented with 1 mM of pyruvate, 2 mM L-glutamine, penicillin/streptomycin and 1% of supplement N2, 60 mg/ml N-acetyl cysteine and […] of bovine serum albumin (BSA, Sigma, France).
The cerebellar GCPs obtained are transferred to 96-well plates treated beforehand with poly-D-lysine at a density of 2.10^5 cells/well. SAG in the presence or absence of the other test compounds is added immediately. 12 hours before the end of culture, tritiated thymidine (^3H-thymidine) is added. The cells are aspirated and recovered on a glass fiber filter (GF/C) using an automated cell collector (Brandel, USA). The amount of radioactivity incorporated by the cells was quantified in the presence of a scintillating agent in a liquid scintillation counter (Wallac, USA).
The cerebellar PCGs proliferate in response to activation of the Shh signalling pathway, a response that can be inhibited by the Smo antagonists (Rohatgi et al., 2009, Proc. Natl. Acad. Sci. USA 106: 3196-201). We therefore analyzed the capacity of compound (7d) for inhibiting the proliferation of the PCGs of rat cerebellum in primary culture by measuring the incorporation of tritiated thymidine, a marker of DNA newly synthesized during the proliferation process.
On the technique in general: Dividing cells build labelled thymidine or BrdU into new DNA.

Series [1] deals with T1, human Smoothened receptor (Homo sapiens, UniProt Q99835).
T1 construct: expressed in transfected cells
As to the kind of experiment: Inhibition of binding of 3H-(7d) to membranes of HEK-hSmo cells. To be noted: for Ki: read-out: Ki ± SEM, binding of compound 3H-(7d). As for the experimental part: The binding test is carried out on membranes enriched with Smoothened receptor. Cells of the HEK-hSmo line were used for preparing these membranes. The cells are washed and recovered in iced PBS. After centrifugation at 100 g for 7 minutes at 4° C., the pellet is taken up in 10 times its volume of an iced buffer A (50 mM HEPES, pH 7.4, 1 mM EDTA) with addition of 10 μl of a cocktail of protease inhibitors (PEAK, Sigma) per ml of buffer, then it is homogenized using a Polytron grinding mill. After centrifugation at 500 g for 30 minutes at 4° C., which makes it possible to remove the nuclei from the cells, the supernatant is centrifuged again at 48 000 g for 45 min at 4° C. The pellet is taken up in 2 ml of buffer A with PEAK added, then the suspension is homogenized using a glass conical grinding mill and is passed through a 23 G needle. Finally, aliquots are placed in Eppendorf tubes and stored at −80° C. The concentration of total protein in the preparation is determined by Lowry's method using BSA for preparing the standard range.
The membranes are resuspended in a buffer (50 mM HEPES and 3 mM MgCl2) containing 0.2% of BSA. The tests of binding of ^3H-(7d) are carried out in polypropylene tubes. The membranes (2 μg of proteins) are incubated with the ^3H-(7d) in the presence or absence of the cold test compounds for 3 hours at 37° C. in a final volume of 400 μl. Incubation is stopped by immersing the tubes in iced water followed by rapid filtration (Brandel) through a glass fiber filtration membrane (GF/C) treated beforehand with 0.3% of polyethylenimine, which can reduce the nonspecific binding of the ^3H-(7d) to the filtration membrane. The radioactivity retained on the filter is measured in the presence of 3 ml of scintillating agent in a liquid scintillation counter.
In this experiment, the cold ligand competes with the radioactive ligand for binding to the receptor, and the affinity (Ki) of each cold ligand for the receptor can be analyzed based on the IC50 values deduced from the inhibition curves.

Series [2] in a line: Binding of 3H-(7d) to membranes of HEK293 cells not transfected with human Smo cDNA. The following applies: 1 μM.
A further series has as its target T2, human Smo receptor (Homo sapiens, UniProt Q99835).
T2 construct: expressed in transfected cells
Nature of the series: Competition with bodipy-cyclopamine (BC) binding in HEK-hSmo cells. To be noted: for IC50: bodipy-cyclopamine (5 nM), HEK-hSmo cells, read-out: IC50 ± SEM, BC binding (4). As for the experimental part: Cells of the HEK293 line stably transfected with the human Smo receptor are used. The experiment was conducted according to the protocol described in Roudaut et al., Mol. Pharmacol. 79: 453-460, 2011.
At the end of the incubation, the cells are fixed and stained with DAPI, a fluorescent molecule with high affinity for DNA which makes it possible to visualize the nuclei in blue in fluorescence microscopy.

The subject of the next series is cells. To be noted: Borzillo et al., 2005; cited from earlier work.
The mark [3] stands for this setting: Mus musculus, C3H 10T1/2, after induction by SAG at 0.1 μM, read-out: IC50, inhibition of alkaline phosphatase (AP) activity, differentiation of C3H10T1/2 cells.
Setting [4] is: Mus musculus, C3H 10T1/2, AP activity, differentiation induced by SAG (0.1 μM), read-out: IC50 ± SEM, C3H10T1/2 cells (2).
[5] abbreviates: 0.35 nM 3H-(7d), HEK-hSmo membranes, 3 hours at 37° C., read-out: IC50 ± SEM, binding of compound 3H-(7d).
[6] abbreviates: calculated from IC50, HEK-hSmo membranes.
Where [7] appears, read: AP activity, differentiation induced by SAG (0.1 μM), read-out: IC50 ± SEM, C3H10T1/2 cells (2).
Where [8] appears, read: after induction by SAG at 0.1 μM, read-out: IC50, inhibition of alkaline phosphatase (AP) activity, differentiation of C3H10T1/2 cells.

“And” between values parts separate entries of the source, which are not always exact repeats. Equal values may be shown once. Where a name gives a salt, the structure may show the parent alone. Read-outs that look alike come from different tables or passages of the source.

For orientation: Ki means the equilibrium dissociation constant of an inhibitor or competing ligand from its target.

T2 sequence (Q99835 28-787): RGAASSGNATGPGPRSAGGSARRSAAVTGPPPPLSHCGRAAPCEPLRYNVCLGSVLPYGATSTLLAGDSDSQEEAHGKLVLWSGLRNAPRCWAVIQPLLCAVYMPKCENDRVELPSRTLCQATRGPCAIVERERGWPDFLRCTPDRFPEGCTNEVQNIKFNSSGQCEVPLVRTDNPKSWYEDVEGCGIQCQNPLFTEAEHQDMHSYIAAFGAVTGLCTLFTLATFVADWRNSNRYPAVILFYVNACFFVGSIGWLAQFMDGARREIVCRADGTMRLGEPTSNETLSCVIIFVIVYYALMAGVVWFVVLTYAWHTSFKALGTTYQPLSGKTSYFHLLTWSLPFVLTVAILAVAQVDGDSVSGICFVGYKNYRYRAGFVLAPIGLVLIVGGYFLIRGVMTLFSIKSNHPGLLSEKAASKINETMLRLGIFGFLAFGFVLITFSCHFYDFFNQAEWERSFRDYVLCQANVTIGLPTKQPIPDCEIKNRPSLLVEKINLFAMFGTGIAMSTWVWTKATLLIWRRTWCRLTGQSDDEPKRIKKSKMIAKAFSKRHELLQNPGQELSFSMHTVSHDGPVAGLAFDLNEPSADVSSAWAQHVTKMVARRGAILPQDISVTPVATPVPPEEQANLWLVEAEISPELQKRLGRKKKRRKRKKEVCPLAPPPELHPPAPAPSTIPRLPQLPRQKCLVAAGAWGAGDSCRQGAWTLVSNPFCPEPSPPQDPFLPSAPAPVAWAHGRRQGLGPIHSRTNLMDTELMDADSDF
T1 sequence (Q99835 28-787): as above

In the case of `COc1cc(C(=O)NC(=N)Nc2ccc(C)c(NC(=O)c3ccc(OCc4ccccc4)cc3)c2)cc(OC)c1OC` [Compound 7h, N—(N-(3-(4-(benzyloxy)benzamido)-4-methylphenyl)carbamimidoyl)-3,4,5-trimethoxybenzamide hydrochloride], the IC50 in the series with C3H10T1/2 cells (setting [3]) was found to be 72 ± 15 nM.

Take `COc1cc(C(=O)NC(=N)Nc2ccc(C)c(NC(=O)c3ccc(Cc4ccccc4)cc3)c2)cc(OC)c1OC` [Compound 7g, N—(N-(3-(4-benzylbenzamido)-4-methylphenyl)carbamimidoyl)-3,4,5-trimethoxybenzamide hydrochloride]: the IC50 in the series on C3H10T1/2 cells (setting [3]) was 220 ± 25 nM.

For the compound `CS(=O)(=O)c1ccc(C(=O)Nc2ccc(Cl)c(-c3ccccn3)c2)c(Cl)c1` [GDC-0449], the IC50 with PCGs of rat cerebellum (Rattus norvegicus) was found to be 8 ± 1 nM; with C3H10T1/2 cells (setting [4]), 10 ± 3 nM; with C3H10T1/2 cells (setting [3]), 10 ± 1 nM. Moreover, in series [1] (1 μM), the “Inhibition of the specific binding of compound 3H-(7d) at a single concentration” value is listed as “completely inhibits”. For the same compound, in series [2], the “Effect on the binding of compound 3H-(7d) to non-transfected membranes” value is “no effect”.

`CNC1CCC(N(Cc2cccc(-c3ccncc3)c2)C(=O)c2sc3ccccc3c2Cl)CC1` (centres unmarked) [SAG]: the IC50 in series [1] (setting [5]) was 5 nM and 5.2 nM. For the same compound, the Ki in series [1] (setting [6]) was 2.4 ± 0.3 nM.

Regarding `COc1cc(C(=O)NC(=N)Nc2ccc(C)c(NC(=O)c3ccc4c(c3)Cc3ccccc3-4)c2)cc(OC)c1OC` [Compound 7b, N-(2-methyl-5-(3-(3,4,5-trimethoxybenzoyl)guanidino)phenyl)-9H-fluorene-2-carboxamide hydrochloride], in the series with C3H10T1/2 cells (setting [3]), the IC50 came out at 28 ± 3 nM.

Regarding `Cc1c(C(=O)Nc2ccc(N3C[C@@H](C)O[C@@H](C)C3)nc2)cccc1-c1ccc(OC(F)(F)F)cc1` [LDE225], the IC50 in the series with PCGs of rat cerebellum (Rattus norvegicus) is 3 nM; in series [1] (setting [5]), 4 nM and 4.2 nM; at human Smo receptor, 8 ± 2 nM; in the series with C3H10T1/2 cells (setting [4]) it was 22 ± 3 nM; in the series with C3H10T1/2 cells (setting [3]) it was 22 ± 3 nM. Also, the Ki in series [1] (setting [6]) is 1.9 ± 0.3 nM.

In the case of `COc1cc(C(=O)NC(=S)Nc2cccc(NC(=O)c3ccccc3)c2)cc(OC)c1OC` [MRT-10], the IC50 in the series with C3H10T1/2 cells (SAG 0.1 μM, Mean ± SEM, n ≧ 3, read-out: IC50, differentiation of C3H10T1/2 cells) stood at 900 ± 200 nM.

`c1ccc2c(Oc3nc(Nc4ccc(N5CCOCC5)cc4)c4ncn(C5CCCCC5)c4n3)cccc2c1` [Purmorphamine, purmorphamine]: in series [1] (0.35 nM 3H-(7d), HEK-hSmo membranes, 3 hours at 37° C.), the “IC50 ± SEM, binding of compound 3H-(7d)” value was “inactive”. Also, the “Inhibition of the binding of compound 3H-(7d), in words” value in series [1] (HEK-hSmo membranes) is “not active”. Also, the IC50 in series [1] (HEK-hSmo membranes, agonists (FIG. 5), read-out: IC50, binding of compound 3H-(7d), unit inferred) is greater than 1000 nM. Further, the “Ki ± SEM, binding of compound 3H-(7d)” value in series [1] (setting [6]) is “inactive”.

Take `COc1cc(C(=O)NC(=N)Nc2ccc(C)c(NC(=O)c3ccc(C/C=C/c4ccccc4)cc3)c2)cc(OC)c1OC` [Compound 7e, (E)-N—(N-(3-(4-cinnamylbenzamido)-4-methylphenyl)carbamimidoyl)-3,4,5-trimethoxybenzamide hydrochloride]: the IC50 in the series with C3H10T1/2 cells (setting [3]) is 57 ± 2 nM.

Turning to cyclopamine, the IC50 was 103 nM with PCGs of rat cerebellum, 620 ± 30 nM in the series on C3H10T1/2 cells (setting [7]) and 620 ± 30 nM in the series on C3H10T1/2 cells (setting [8]). The “Concentration cytotoxic for the cells” value with cells is “above 10 μM”.

Consider `COc1cccc(CN(C(=O)CC(C)(C)C)[C@H]2C[C@@H](C(=O)N3CCNCC3)N(Cc3ccc4c(c3)OCO4)C2)c1` [Cur61414], for which the “Inhibition of the binding of compound 3H-(7d), in words” value in series [1] (HEK-hSmo membranes) is “micromolar order”.

Turning to `COc1cc(C(=O)NC(=N)Nc2ccc(C)c(NC(=O)c3ccc(C(=O)c4ccccc4)cc3)c2)cc(OC)c1OC` [Compound 7a, N—(N-(3-(4-benzoylbenzamido)-4-methylphenyl)carbamimidoyl)-3,4,5-trimethoxybenzamide hydrochloride], the IC50 in the series on C3H10T1/2 cells (setting [3]) was determined as 32 ± 11 nM.

Regarding `COc1cc(C(=O)NC(N)=Nc2ccc(C)c(NC(=O)c3ccc(-c4ccccc4)cc3)c2)cc(OC)c1OC` [MRT-83], the IC50 with PCGs of rat cerebellum was 6 nM; in series [1] (setting [5]) it was 11 nM and 10.5 nM; at human Smo receptor, 5 ± 3 nM; with C3H10T1/2 cells (setting [7]), 11 ± 3 nM; in the series on C3H10T1/2 cells (setting [8]) it was 11 ± 3 nM. In addition, the Ki in series [1] (setting [6]) was 4.8 ± 1.2 nM. Also, on human Smo receptor (BC 5 nM, 2 hours), the “Block of the binding of BC to HEK-hSmo cells, in words” value was “very similar and high”.
